The source of these data is patent US8841413B2, “Antidiabetic compounds” (Cadila Healthcare Limited, priority 2006, dated 2014).

Series [1] in a line: Stability in human plasma. The format is in vitro ADME. The settings on record: 2 μM, 37° C. The gist of the method: (§1)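 First, each incubation is terminated using TFA in water (10% v/v). Next, samples run through a TFA/H2O-equilibrated column at 1 mL/min, with 206 nm monitoring. Finally, manually collected fractions go to electrospray MS.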
Series [2] can be described thus: Stability in simulated intestinal fluid. The format is in vitro ADME. The settings on record: 37° C.; for half-life at 2 μM: simulated intestinal fluid, pH 7.5, read-out: half-life (t1/2) in simulated intestinal fluid. The gist of the method: as §1
A short description of series [3]: Stability against liver microsomes. It counts as in vitro ADME, human. The settings on record: for half-life at 2 μM: human, human liver microsomes, pH 7.8, 37° C., read-out: half-life (t1/2) with liver microsomes. The method, boiled down: as §1
(In general: Microsomes from liver hold many membrane-bound enzymes, among them those of drug oxidation.)

Series [4] has as its system RIN5F (Rat Insulinoma) cells. Nature of the series: In vitro glucose-dependent insulin secretion (RIN5F cell assay). It counts as cell-based. The note with it: 16.7 mM glucose load, mean ± S.D., n = 3. The method, then: After trypsinization, RIN5F cells were seeded at a concentration of 0.2×10^6·cells per well, in 12 well plates.
The supernatant was collected and the insulin amount was measured by ultra sensitive Rat insulin ELISA kit (Crystal Chem, Ill.). The protein was estimated in the supernatant using Bicinchoninic Acid kit, according to the manufacturer's protocol (Sigma Aldrich, Mo.). The total insulin content obtained in Pico-gram (pg) was divided with the total protein (μg) in order to normalize for differences in cell density between wells.

Series [5] is described as follows: Stability in simulated gastric fluid. It counts as in vitro ADME. The note with it: 37° C., pH 1.5, pepsin; for half-life at 2 μM: simulated gastric fluid with pepsin. The method, boiled down: as §1
The next series deals with DPP IV (Homo sapiens, UniProt P27487). Put plainly: Stability against DPP IV enzyme. It counts as in vitro ADME. The note with it: 2 μM, 37° C. The method, boiled down: as §1
Chain of DPP IV (P27487 whole entry, species assumed): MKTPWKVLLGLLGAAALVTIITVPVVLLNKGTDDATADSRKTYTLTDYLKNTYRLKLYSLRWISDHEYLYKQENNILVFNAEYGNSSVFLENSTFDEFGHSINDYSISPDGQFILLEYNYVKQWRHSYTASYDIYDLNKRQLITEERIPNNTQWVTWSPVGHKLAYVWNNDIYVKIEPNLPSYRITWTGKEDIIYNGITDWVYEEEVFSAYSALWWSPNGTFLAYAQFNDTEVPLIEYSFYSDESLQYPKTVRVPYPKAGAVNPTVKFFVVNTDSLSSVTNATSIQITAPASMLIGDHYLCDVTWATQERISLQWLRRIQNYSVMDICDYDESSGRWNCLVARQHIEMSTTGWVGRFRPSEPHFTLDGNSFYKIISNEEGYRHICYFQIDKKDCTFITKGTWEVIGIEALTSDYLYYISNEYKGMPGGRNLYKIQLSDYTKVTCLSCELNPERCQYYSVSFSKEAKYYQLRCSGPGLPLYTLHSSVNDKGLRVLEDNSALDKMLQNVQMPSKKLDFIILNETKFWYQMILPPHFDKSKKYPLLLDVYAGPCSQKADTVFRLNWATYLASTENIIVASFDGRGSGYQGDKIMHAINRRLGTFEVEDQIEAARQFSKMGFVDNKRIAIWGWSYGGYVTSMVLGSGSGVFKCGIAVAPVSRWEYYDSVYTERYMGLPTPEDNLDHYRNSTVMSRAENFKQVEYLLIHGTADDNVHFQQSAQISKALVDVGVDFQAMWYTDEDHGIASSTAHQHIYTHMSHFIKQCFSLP
The next series concerns the target T1, human glucagon receptor (Homo sapiens, UniProt P47871).
T1 construct: The full-length cDNA was cloned in pcDNA3.1(Invitrogen); expressed in transfected cells
Put plainly: In vitro human glucagon antagonist activity (inhibition of cAMP production), CHO/human glucagon R cells. The format is cell-based. The protocol:
CHO cells were grown in Ham's F12 medium containing L-Glutamine (2 mM), HEPES (25 mM), NaHCO3 (1.1 g/L) and supplemented with newborn Calf Serum (NBCS; 10%), Penicillin (50 U/ml (v/v)) and Streptomycin (50 ug/ml (v/v)). Cells were split every 3 days 1:8.
The full-length cDNA was cloned in pcDNA3.1(Invitrogen). […] Clones expressing the receptor were generated by G418 (800 μg/ml active, Sigma) selection. The stable clones were thereafter maintained at 500 ug/ml (G418). The selected clone was used between passages 9-25 for cAMP assays.
The trypsin was inactivated using Ham's F12 medium containing 10% NBCS and the cells were suspended in 2 ml of complete medium. […] The medium was aspirated off from the 12 well plate and the cells were washed once using Ham's F12 (plain). […] After the incubation; the medium was removed and cells were washed once with plain Ham's F12. Subsequently, the cells were lysed by adding 500 ul of ice cold 0.1 N HCl to each well and shaking for 30 minutes at 200 rpm. The cells were then scrapped, the lysate was collected in micro centrifuge tubes and centrifuged at 12000 rpm for 10 min to remove the debris. 300 ul of supernatant from each micro-centrifuge tube was then removed into a glass tube and dried under N2 for 30 min, for cAMP estimation. The total cAMP was estimated from the sample according to the manufacturer's protocol using Cyclic AMP immunoassay kit (R&D systems, Minneapolis: MN). The remaining supernatant is used to determine the protein concentration using micro BCA (Sigma). Data is calculated as percent of control (Vehicle: water) and expressed as Mean+SD.

The target of a further series is T2, Human GLP-1 receptor (Homo sapiens, UniProt P43220).
T2 construct: The full-length cDNA was cloned in pcDNA3.1(+); expressed in transfected cells
T2 sequence (P43220 24-463): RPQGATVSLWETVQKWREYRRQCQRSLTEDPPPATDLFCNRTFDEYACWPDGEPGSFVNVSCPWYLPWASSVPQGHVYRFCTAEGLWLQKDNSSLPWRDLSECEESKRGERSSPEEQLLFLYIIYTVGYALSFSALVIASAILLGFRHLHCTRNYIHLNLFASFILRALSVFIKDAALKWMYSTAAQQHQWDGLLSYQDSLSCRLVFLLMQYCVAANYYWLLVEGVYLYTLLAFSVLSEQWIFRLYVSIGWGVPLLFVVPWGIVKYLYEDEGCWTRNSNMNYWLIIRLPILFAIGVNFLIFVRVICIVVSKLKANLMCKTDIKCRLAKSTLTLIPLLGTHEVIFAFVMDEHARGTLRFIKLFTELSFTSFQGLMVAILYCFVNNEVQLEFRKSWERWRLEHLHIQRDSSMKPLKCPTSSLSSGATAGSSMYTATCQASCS
It counts as cell-based. The method, boiled down:
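Stably transfected CHO cells expressing human GLP-1R, passages 9-25, exposed to compounds for 30 min at 37 °C. Lysed in ice-cold 0.1 N HCl; total cAMP by immunoassay, protein by micro BCA; expressed as percent of water vehicle control, mean±SD.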

The mark [6] stands for this setting: read-out: half-life (t1/2) in simulated gastric fluid.
The mark [7] stands for this setting: 1 nM test compound (fourth concentration column, between 100 nM and 10 μM) with saturated concentration of glucagon peptide.
Setting [8] is: 1 nM test compound with saturated concentration of glucagon peptide.
Where [9] appears, read: 10 nM test compound with saturated concentration of glucagon peptide.
The mark [10] stands for this setting: 100 nM test compound with saturated concentration of glucagon peptide.
Where [11] appears, read: 10 μM test compound with saturated concentration of glucagon peptide.

Where two headings read alike, the source gives them in different places.

T1 sequence (P47871 26-477): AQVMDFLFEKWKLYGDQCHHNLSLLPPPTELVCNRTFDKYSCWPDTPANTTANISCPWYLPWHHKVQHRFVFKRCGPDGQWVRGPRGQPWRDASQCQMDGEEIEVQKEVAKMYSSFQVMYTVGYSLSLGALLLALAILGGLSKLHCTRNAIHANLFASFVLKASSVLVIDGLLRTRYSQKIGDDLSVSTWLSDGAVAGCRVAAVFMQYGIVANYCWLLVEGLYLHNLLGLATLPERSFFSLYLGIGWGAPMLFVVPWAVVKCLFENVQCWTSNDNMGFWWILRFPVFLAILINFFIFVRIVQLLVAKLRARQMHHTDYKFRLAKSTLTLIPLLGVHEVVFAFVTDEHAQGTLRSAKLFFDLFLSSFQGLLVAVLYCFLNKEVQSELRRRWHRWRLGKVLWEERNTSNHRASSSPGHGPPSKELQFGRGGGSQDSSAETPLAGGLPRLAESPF

In the case of `CCc1cc(OC)ccc1-c1ccc(CC(NC(=O)[C@H](CC(=O)O)NC(=O)[C@H](CO)NC(=O)[C@@H](NC(=O)[C@H](Cc2ccccc2)NC(=O)[C@@H](NC(=O)CNC(=O)[C@H](CCC(N)=O)NC(=O)[C@H](CO)NC(=O)[C@@H](N)Cc2c[nH]cn2)[C@@H](C)O)[C@@H](C)O)C(=O)NC(Cc2ccc(-c3ccccc3C)cc2)C(N)=O)cc1` (single isomer, unassigned) [compound 5], the “half-life (t1/2) in human plasma” value in series [1] was “(9) h”. Besides, the “% degradation in 24 h when incubated with human plasma” value (“% degradation … with human plasma” below) in series [1] turned out to be 78%. Further, the “% degradation in 24 h when incubated with simulated intestinal fluid” value (“% degradation … with simulated intestinal fluid” for short) in series [2] (2 μM, pH 7.5) is 100%. In addition, the half-life at 2 μM in series [2], in series [3] and in series [5] (setting [6]) was 30 min throughout. Also, the “% degradation in 24 h when incubated with liver microsomes” value (“% degradation … with liver microsomes” below) in series [3] (2 μM, 37° C.) was 100%. For the same molecule, the Insulin secretion in series [4] (0.1 nM test compd.) was 12.1 ± 0.52 pg/µg/h; in series [4] (1 nM test compd.) it was 14.1 ± 0.16 pg/µg/h; in series [4] (10 nM test compd.) it was 28.0 ± 0.36 pg/µg/h. Also, the “% degradation in 24 h when incubated with simulated gastric fluid” value (“% degradation … with simulated gastric fluid” for short) in series [5] (2 μM) is 100%. In addition, on DPP IV, the “% degradation in 24 h when incubated with DPP-IV enzyme” value (“% degradation … with DPP-IV enzyme” for short) is on record as 76%. In addition, the “Human Glucagon receptor antagonistic activity, inhibition of cAMP production of Glucagon peptide” value at human glucagon receptor (setting [7]) is on record as 14 ± 0.03 pmol/ml/μg prt; on human glucagon receptor (setting [8]), 20 ± 0.06 pmol/ml/μg prt; on human glucagon receptor (setting [9]), 18 ± 0.09 pmol/ml/μg prt; at human glucagon receptor (setting [10]), 16 ± 0.01 pmol/ml/μg prt; at human glucagon receptor (setting [11]), 12 ± 0.01 pmol/ml/μg prt.
`CCc1cc(OC)ccc1-c1ccc(CC(NC(=O)[C@H](CC(=O)O)NC(=O)[C@H](CO)NC(=O)[C@@H](NC(=O)[C@H](Cc2ccccc2)NC(=O)[C@@H](NC(=O)CNC(=O)[C@H](CCC(N)=O)NC(=O)[C@H](CO)NC(=O)[C@@H](N)Cc2c[nH]cn2)[C@@H](C)O)[C@@H](C)O)C(=O)NC(Cc2ccc(-c3ccccc3C)nc2)C(N)=O)cc1` (single isomer, unassigned) [compound 6]: the “half-life (t1/2) in human plasma” value in series [1] was “(9) h”. Further, the “% degradation … with human plasma” value in series [1] was determined as 77%. For the same molecule, the “% degradation … with simulated intestinal fluid” value in series [2] (2 μM, pH 7.5) is given as 100%. For the same molecule, the half-life at 2 μM in series [2], in series [3] and in series [5] (setting [6]) was 30 min throughout. Besides, in series [3] (2 μM, 37° C.), the “% degradation … with liver microsomes” value came to 100%. Moreover, the results for the Insulin secretion in series [4] (0.1 nM test compd.), in series [4] (1 nM test compd.) and in series [4] (10 nM test compd.) were 12.4 ± 0.26 pg/µg/h, 15.2 ± 0.33 pg/µg/h and 29.6 ± 0.51 pg/µg/h, respectively. Besides, the “% degradation … with simulated gastric fluid” value in series [5] (2 μM) is listed as 100%. Moreover, on DPP IV, the “% degradation … with DPP-IV enzyme” value is 75%.
Turning to `CCc1cc(OC)ccc1-c1ccc(CC(NC(=O)[C@H](CC(=O)O)NC(=O)[C@H](CO)NC(=O)[C@@H](NC(=O)[C@H](Cc2ccccc2)NC(=O)[C@@H](NC(=O)CNC(=O)[C@H](CCC(N)=O)NC(=O)[C@H](CO)NC(=O)[C@@H](N)Cc2c[nH]cn2)[C@@H](C)O)[C@@H](C)O)C(=O)NC(Cc2ccc(-c3ccccc3F)cc2)C(N)=O)cc1` (single isomer, unassigned) [compound 7], in series [1], the “half-life (t1/2) in human plasma” value is on record as “(9) h”. Moreover, the “% degradation … with human plasma” value in series [1] was 80%. Moreover, the “% degradation … with simulated intestinal fluid” value in series [2] (2 μM, pH 7.5) was 100%. Also, the half-life at 2 μM in series [2], in series [3] and in series [5] (setting [6]) was 30 min throughout. For the same molecule, the “% degradation … with liver microsomes” value in series [3] (2 μM, 37° C.) is recorded as 100%. The Insulin secretion in series [4] (0.1 nM test compd.) turned out to be 11.1 ± 0.12 pg/µg/h; in series [4] (1 nM test compd.), 13.1 ± 0.13 pg/µg/h; in series [4] (10 nM test compd.) it was 19.0 ± 0.16 pg/µg/h. Also, the “% degradation … with simulated gastric fluid” value in series [5] (2 μM) is listed as 100%. Besides, the “% degradation … with DPP-IV enzyme” value at DPP IV was 77%. For the same molecule, the “Human Glucagon receptor antagonistic activity, inhibition of cAMP production of Glucagon peptide” value on human glucagon receptor (setting [7]) is reported as 0 pmol/ml/μg prt; on human glucagon receptor (setting [8]), 6 ± 0.02 pmol/ml/μg prt; on human glucagon receptor (setting [9]), 5 ± 0.03 pmol/ml/μg prt; at human glucagon receptor (setting [10]), 2 ± 0.61 pmol/ml/μg prt; on human glucagon receptor (setting [11]) it was 0 pmol/ml/μg prt.
Turning to `CCc1cc(OC)ccc1-c1ccc(CC(NC(=O)[C@H](CC(=O)O)NC(=O)[C@H](CO)NC(=O)[C@@H](NC(=O)C(C)(Cc2ccccc2F)NC(=O)[C@@H](NC(=O)CNC(=O)[C@H](CCC(N)=O)NC(=O)C2(NC(=O)[C@@H](N)Cc3c[nH]cn3)CC2)[C@@H](C)O)[C@@H](C)O)C(=O)NC(Cc2ccc(-c3ccccc3C(F)(F)F)cc2)C(N)=O)cc1` (single isomer, unassigned) [compound 36], in series [1], the “% degradation … with human plasma” value is on record as 00%. The half-life in series [1] (human, plasma, read-out: half-life (t1/2) in human plasma) is more than 1440 min; in series [2] (simulated gi fluid, 2 μM, pH 7.5, read-out: half-life (t1/2) in simulated intestinal fluid), more than 1440 min; in series [5] (simulated gi fluid, 2 μM, read-out: half-life (t1/2) in simulated gastric fluid), more than 1440 min; on DPP IV (read-out: half-life (t1/2) with DPP-IV enzyme), more than 1440 min. For the same molecule, in series [2] (2 μM, pH 7.5), the “% degradation … with simulated intestinal fluid” value was 00%. Moreover, in series [3] (2 μM, 37° C.), the “half-life (t1/2) with liver microsomes” value is given as “(5) h”. The “% degradation … with liver microsomes” value in series [3] (2 μM, 37° C.) came to 35%. Also, the “% degradation … with simulated gastric fluid” value in series [5] (2 μM) is 00%. The “% degradation … with DPP-IV enzyme” value at DPP IV is listed as 00%. For the same molecule, the “Human GLP-1 R activity (cAMP release), % activity with respect to control” value is recorded as 96 ± 0.09% on Human GLP-1 receptor (1 nM test compound); 99 ± 0.07% on Human GLP-1 receptor (10 nM test compound); 99 ± 0.04% on Human GLP-1 receptor (100 nM test compound); 99 ± 0.01% on Human GLP-1 receptor (1 μM test compound); 99 ± 0.08% on Human GLP-1 receptor (10 μM test compound).
